Experimental findings from US8895695B2, “Template-fixed beta-hairpin peptidomimetics with CXCR4 antagonizing activity” (priority 2003, dated 2014) are described below.

Each structure is given as a SMILES string. Bridge positions count the residues as written; N and C are the ends. Square brackets hold non-standard residues; d marks the D form. Peptide text beside a SMILES is read from it. 2Nal = N[C@@H](Cc1ccc2ccccc2c1)C(=O)O; Cit = NC(=O)NCCC[C@H](N)C(=O)O; Dab = NCC[C@H](N)C(=O)O

In data set [1] the test system is human red blood cells (hRBC). Put plainly: Hemolysis. Type of data set: cell-based. The essentials:
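Percent lysis taken as OD540 of peptide-treated sample over OD540 of the water/0.1% Triton X-100 full-lysis control, with PBS giving 0%. Peptides at 100 μM exposed to PBS-washed human RBCs (20% v/v) for 1 hour at 37° C. before centrifugation and 20-fold dilution of supernatant.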

Data set [2] can be described thus: in vitro. The format is in vitro ADME. The following applies: plasma. The procedure:
405 μl of plasma/albumin solution were placed in a polypropylene (PP) tube and spiked with 45 μl of compound from a 100 μM solution B, derived from 135 μl of PBS and 15 μl of 1 mM peptide in PBS, pH 7.4. 150 μl aliquots were transferred into individual wells of the 10 kDa filter plate (Millipore MAPPB 1010 Biomax membrane). For “0 minutes controls”: 270 μl of PBS were placed in a PP tube and 30 μl of stock solution B was added and vortexed. 150 μl of control solution was placed into one well of the filter plate and serves as “filtered control”.
Further 150 μl of control solution were placed directly into a receiver well (reserved for filtrate) and serve as “not-filtered control”. The entire plate including evaporation lid was incubated for 60 min at 37° C. Plasma samples (rat plasma: Harlan Sera lab UK, human plasma: Blutspendezentrum Zürich) were centrifuged at least for 2 h at 4300 rpm (3500 g) and 15° C. in order to yield 100 μl filtrate. For “serum albumin”-samples (freshly prepared human albumin: Sigma A-4327, rat albumin: Sigma A-6272, all at 40 mg/ml concentration in PBS) approximately 1 hour of centrifugation is sufficient. The filtrates in the receiver PP plate were analysed by LC/MS as followes: Column: Jupiter C18 (Phenomenex), mobile phases: (A) 0.1% formic acid in water and (B) acetonitrile, gradient: 5%-100% (B) in 2 minutes, electrospray ionization, MRM detection (triple quadrupole). The peak areas were determined and triplicate values are averaged. The binding is expressed in percent of the (filtered and not-filtered time point 0 min) control 1 and 2 by: 100−(100*T60/T0). The average from these values is then calculated (see ref. 9 below).

Data set [3] can be described thus: in vitro. The settings on record: human.
Experimental: Each peptide concentration was assayed in triplicate. […] Wells were then washed once with PBS and subsequently 100 μl MTT reagent (0.5 mg/mL in medium RPMI1640 and, respectively, DMEM) was added to the wells. This was incubated at 37° C. for 2 hours and subsequently the medium was aspirated and 100 μl isopropanol was added to each well. […] For each concentration averages were calculated from triplicates. The percentage of growth was calculated as follows: (OD595peptide-OD595Tz-OD595Empty well)/(OD595Tz-OD595Empty well)×100% and was plotted for each peptide concentration.
‘CCR5’ cells were cultured in DMEM medium with 4500 mg/ml glucose, 10% fetal bovine serum (FBS), supplemented with 50 U/ml Penicillin and 50 μg/ml Streptomycin (Pen/Strept.). Hut/4-3 cells were maintained in RPMI medium, 10% FBS, supplemented with Pen/Strept. and 10 mM HEPES. HELA cells and CCRF-CEM cells were maintained in RPMI1640 plus 5% FBS, Pen/Strept and 2 mM L-Glutamine. Cos-7 cells were grown in DMEM medium with 4500 mg/ml glucose supplemented with 10% FCS, Pen/Strept. and 2 mM L-Glutamine. All cell lines were grown at 37° C. at 5% CO2.
In data set [4] the target is CXCR4 (Homo sapiens, UniProt P61073). Put plainly: Ca2+-assay method 2 (Flexstation, SDF-1 induced calcium mobilization). The format is cell-based. Details: expressed in transfected cells; host or cells: mouse pre-B cell line 300-19. The settings on record: method 2 (Ex. 54-160), mouse pre-B cell line 300-19 with human CXCR4, 10 nM SDF-1; read-out: IC50 (nM) Ca^2+ assay.
Chain of CXCR4 (P61073 whole entry): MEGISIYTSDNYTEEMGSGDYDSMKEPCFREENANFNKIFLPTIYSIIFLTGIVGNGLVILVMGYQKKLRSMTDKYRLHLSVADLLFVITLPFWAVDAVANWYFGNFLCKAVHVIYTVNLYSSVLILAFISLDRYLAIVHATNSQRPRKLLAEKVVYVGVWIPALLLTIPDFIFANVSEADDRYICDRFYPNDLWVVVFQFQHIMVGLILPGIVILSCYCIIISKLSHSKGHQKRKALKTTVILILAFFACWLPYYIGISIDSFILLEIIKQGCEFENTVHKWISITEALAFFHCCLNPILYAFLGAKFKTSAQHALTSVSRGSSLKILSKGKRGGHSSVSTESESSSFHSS

For orientation: half-life means how long it takes for the measured level to halve. In general, GI50 refers to the concentration that inhibits growth by half. Higher therefore signals less potent growth inhibition. The IC50 is the concentration that gives 50% inhibition.
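Wherever GI50 is given: MTT reduction read as absorbance at 595 nm, blank-corrected and expressed as percent growth relative to the time-zero cell reading, triplicate wells per concentration.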

In data set [1], `N=C(N)NCCC[C@@H]1NC(=O)[C@@H]2CSSC[C@H](NC(=O)[C@H](Cc3c[nH]c4ccccc34)NC(=O)[C@H](CCCNC(=N)N)NC(=O)[C@H](CCCNC(=N)N)NC(=O)[C@H]3CCCN3C(=O)CNC1=O)C(=O)N[C@@H](Cc1ccc(O)cc1)C(=O)N[C@@H](CCCNC(N)=O)C(=O)N[C@@H](CC(=O)O)C(=O)N1CCC[C@@H]1C(=O)N1CCC[C@H]1C(=O)N[C@@H](Cc1ccc(O)cc1)C(=O)N[C@@H](CCCNC(=N)N)C(=O)N[C@@H](CO)C(=O)N2` [Ex. 102] (cyclo(YRSCRG[dP]RRWCY[Cit]D[dP]P); disulfide 4-11) showed a Hemolysis at 100 μM of 0.5%. For the same molecule, the half-life at 10 μM in data set [2] (human) stood at 4.25 h; in data set [2] (rat), 4.08 h. In data set [3], this molecule yielded a GI50 at 48 h of 33 µM. The IC50 in data set [4] is 8 nM.

On to `N=C(N)NCCC[C@@H]1NC(=O)[C@@H]2CSSC[C@H](NC(=O)[C@H](Cc3ccc4ccccc4c3)NC(=O)[C@H](CCCNC(=N)N)NC(=O)[C@H](CCCNC(=N)N)NC(=O)[C@H]3CCCN3C(=O)CNC1=O)C(=O)N[C@@H](Cc1ccc(O)cc1)C(=O)N[C@@H](CCC(N)=O)C(=O)N[C@@H](CC(=O)O)C(=O)N1CCC[C@@H]1C(=O)N1CCC[C@H]1C(=O)N[C@@H](Cc1ccc(O)cc1)C(=O)N[C@@H](CCCNC(=N)N)C(=O)N[C@@H](CCCNC(N)=O)C(=O)N2` [Ex. 85] (cyclo(YR[Cit]CRG[dP]RR[2Nal]CYQD[dP]P); disulfide 4-11), for which, in data set [1], the Hemolysis at 100 μM was found to be 0%. Further, the half-life at 10 μM in data set [2] (human) is 2.77 h; in data set [2] (rat), more than 5 h. The molecule also showed a GI50 at 48 h in data set [3] of 94 µM. In data set [4], the IC50 was 2.7 nM.

In data set [1], `N=C(N)NCCC[C@@H]1NC(=O)[C@@H]2CSSC[C@H](NC(=O)[C@H](Cc3ccc4ccccc4c3)NC(=O)[C@H](CCCNC(=N)N)NC(=O)[C@H](CCCNC(=N)N)NC(=O)[C@H]3CCCN3C(=O)CNC1=O)C(=O)N[C@@H](Cc1ccc(O)cc1)C(=O)N[C@@H](CCC(N)=O)C(=O)N[C@@H](CCC(N)=O)C(=O)N1CCC[C@@H]1C(=O)N1CCC[C@H]1C(=O)N[C@@H](Cc1ccc(O)cc1)C(=O)N[C@@H](CCCNC(=N)N)C(=O)N[C@@H](CCCNC(N)=O)C(=O)N2` [Ex. 60] (cyclo(YR[Cit]CRG[dP]RR[2Nal]CYQQ[dP]P); disulfide 4-11) showed a Hemolysis at 100 μM of 0.1%. The half-life at 10 μM in data set [2] (human) and in data set [2] (rat) was more than 5 h throughout. For the same molecule, growth in data set [3] was halved (GI50 at 48 h) at 62 µM. For the same molecule, in data set [4], the IC50 stood at 0.18 nM.

In data set [1], `N=C(N)NCCC[C@@H]1NC(=O)[C@@H]2CSSC[C@H](NC(=O)[C@H](Cc3ccc4ccccc4c3)NC(=O)[C@H](CCCNC(=N)N)NC(=O)[C@H](CCCNC(=N)N)NC(=O)[C@H]3CCCN3C(=O)CNC1=O)C(=O)N[C@@H](Cc1ccc(O)cc1)C(=O)N[C@@H](CCC(N)=O)C(=O)N[C@@H](CCC(=O)O)C(=O)N1CCC[C@@H]1C(=O)N1CCC[C@H]1C(=O)N[C@@H](Cc1ccc(O)cc1)C(=O)N[C@@H](CCCNC(=N)N)C(=O)N[C@@H](CCCNC(N)=O)C(=O)N2` [Ex. 61] (cyclo(YR[Cit]CRG[dP]RR[2Nal]CYQE[dP]P); disulfide 4-11) displayed a Hemolysis at 100 μM of 0.3%. Also, the figures for the half-life at 10 μM in data set [2] (human) and in data set [2] (rat) were 4.55 h and more than 5 h, respectively. In data set [3], this molecule came in with a GI50 at 48 h of more than 100 µM. Also, the IC50 in data set [4] is 4.1 nM.

In turn, `C[C@@H](O)[C@@H]1NC(=O)[C@H](Cc2c[nH]cn2)NC(=O)[C@H](Cc2ccc(O)cc2)NC(=O)[C@@H]2CCCN2C(=O)[C@H]2CCCN2C(=O)[C@H](CCCCN)NC(=O)[C@H](CCC(N)=O)NC(=O)[C@H](Cc2ccc(O)cc2)NC(=O)[C@@H]2CSSC[C@H](NC1=O)C(=O)N[C@@H](CCCNC(=N)N)C(=O)NCC(=O)N1CCC[C@@H]1C(=O)N[C@@H](CCCNC(=N)N)C(=O)N[C@@H](CCCNC(=N)N)C(=O)N[C@@H](Cc1c[nH]c3ccccc13)C(=O)N2` [Ex. 120] (cyclo(YHTCRG[dP]RRWCYQK[dP]P); disulfide 4-11) returned a Hemolysis at 100 μM in data set [1] of 0%. For the same molecule, the half-life at 10 μM in data set [2] (human) stood at 0.65 h; in data set [2] (rat), 2.9 h. The molecule further showed a GI50 at 48 h in data set [3] of 78 µM.

In the case of `N=C(N)NCCC[C@@H]1NC(=O)[C@@H]2CCNC(=O)CC[C@H](NC(=O)[C@H](Cc3c[nH]c4ccccc34)NC(=O)[C@H](CCCNC(=N)N)NC(=O)[C@H](CCCNC(=N)N)NC(=O)[C@H]3CCCN3C(=O)CNC1=O)C(=O)N[C@@H](Cc1ccc(O)cc1)C(=O)N[C@@H](CCCNC(N)=O)C(=O)N[C@@H](CCCCN)C(=O)N1CCC[C@@H]1C(=O)N1CCC[C@H]1C(=O)N[C@@H](Cc1ccc(O)cc1)C(=O)N[C@@H](CCCNC(=N)N)C(=O)N[C@@H](CCCNC(N)=O)C(=O)N2` [Ex. 152] (cyclo(YR[Cit][Dab]RG[dP]RRWEY[Cit]K[dP]P); lactam 4-11), the Hemolysis at 100 μM in data set [1] was 0%. Further, the half-life at 10 μM in data set [2] (human) worked out at 0.383 h; in data set [2] (rat), 1.43 h. In data set [3], this molecule displayed a GI50 at 48 h of 46 µM. For the same molecule, the half-inhibitory concentration (IC50) in data set [4] came to 4.2 nM.

Turning to `N=C(N)NCCC[C@@H]1NC(=O)[C@@H]2CSSC[C@H](NC(=O)[C@H](Cc3ccc4ccccc4c3)NC(=O)[C@H](CCCNC(=N)N)NC(=O)[C@H](CCCNC(=N)N)NC(=O)[C@H]3CCCN3C(=O)CNC1=O)C(=O)N[C@@H](Cc1ccc(O)cc1)C(=O)N[C@@H](CCC(N)=O)C(=O)N[C@@H](CCCCN)C(=O)N1CCC[C@@H]1C(=O)N1CCC[C@H]1C(=O)N[C@@H](CCC(=O)O)C(=O)N[C@@H](CCCNC(=N)N)C(=O)N[C@@H](CCCNC(N)=O)C(=O)N2` [Ex. 68] (cyclo(ER[Cit]CRG[dP]RR[2Nal]CYQK[dP]P); disulfide 4-11), the Hemolysis at 100 μM in data set [1] came to 0.1%. Also, the half-life at 10 μM in data set [2] (human) was 2.12 h; in data set [2] (rat), 1.35 h. The GI50 at 48 h in data set [3] was more than 100 µM. Further, in data set [4], the IC50 turned out to be 1.1 nM.

On to `N=C(N)NCCC[C@@H]1NC(=O)[C@H](CO)NC(=O)[C@H](CCCNC(N)=O)NC(=O)[C@H](CCCNC(=N)N)NC(=O)[C@H](Cc2ccc(O)cc2)NC(=O)[C@@H]2CCCN2C(=O)[C@H]2CCCN2C(=O)[C@H](CCCCN)NC(=O)[C@H](CCCNC(N)=O)NC(=O)[C@H](Cc2ccc(O)cc2)NC(=O)[C@H](CC(N)=O)NC(=O)[C@H](Cc2c[nH]c3ccccc23)NC(=O)[C@H](CCCNC(=N)N)NC(=O)[C@H](CCCNC(=N)N)NC(=O)[C@H]2CCCN2C(=O)CNC1=O` [Ex. 151] (cyclo(YR[Cit]SRG[dP]RRWNY[Cit]K[dP]P)), for which the Hemolysis at 100 μM in data set [1] was 0.9%. Besides, the half-life at 10 μM in data set [2] (human) is 1.48 h; in data set [2] (rat), 1.18 h. Also, growth in data set [3] was halved (GI50 at 48 h) at 83 µM. Besides, the IC50 in data set [4] worked out at 4.2 nM.

As for `N=C(N)NCCC[C@@H]1NC(=O)[C@@H]2CSSC[C@H](NC(=O)[C@H](Cc3c[nH]c4ccccc34)NC(=O)[C@H](CCCNC(=N)N)NC(=O)[C@H](Cc3c[nH]cn3)NC(=O)[C@H]3CCCN3C(=O)CNC1=O)C(=O)N[C@@H](Cc1ccc(O)cc1)C(=O)N[C@@H](CCCNC(N)=O)C(=O)N[C@@H](CCCCN)C(=O)N1CCC[C@@H]1C(=O)N1CCC[C@H]1C(=O)N[C@@H](Cc1ccc(O)cc1)C(=O)N[C@@H](CCCNC(=N)N)C(=O)N[C@@H](CCCNC(N)=O)C(=O)N2` [Ex. 137] (cyclo(YR[Cit]CRG[dP]HRWCY[Cit]K[dP]P); disulfide 4-11), the Hemolysis at 100 μM in data set [1] was 0.5%. This molecule came in with a GI50 at 48 h in data set [3] of 79 µM. Further, in data set [4], the IC50 came out at 1.28 nM.

Molecule `N=C(N)NCCC[C@@H]1NC(=O)[C@@H]2CSSC[C@H](NC(=O)[C@H](Cc3c[nH]c4ccccc34)NC(=O)[C@H](CCCNC(=N)N)NC(=O)[C@H](CCCNC(=N)N)NC(=O)[C@H]3CCCN3C(=O)CNC1=O)C(=O)N[C@@H](Cc1ccc(O)cc1)C(=O)N[C@@H](CCCNC(N)=O)C(=O)N[C@@H](CCCCN)C(=O)N1CCC[C@@H]1C(=O)N1CCC[C@H]1C(=O)N[C@@H](Cc1ccc(O)cc1)C(=O)N[C@@H](Cc1c[nH]cn1)C(=O)N[C@@H](CCCNC(N)=O)C(=O)N2` [Ex. 105] (cyclo(YH[Cit]CRG[dP]RRWCY[Cit]K[dP]P); disulfide 4-11) came in with a Hemolysis at 100 μM in data set [1] of 0%. This molecule also gave a GI50 at 48 h in data set [3] of 49 µM. For the same molecule, the IC50 in data set [4] is 0.62 nM.

Take `N=C(N)NCCC[C@@H]1NC(=O)[C@@H]2CSSC[C@H](NC(=O)[C@H](Cc3ccc4ccccc4c3)NC(=O)[C@H](CCCNC(=N)N)NC(=O)[C@H](CCCNC(=N)N)NC(=O)[C@H]3CCCN3C(=O)CNC1=O)C(=O)N[C@@H](Cc1ccc(O)cc1)C(=O)N[C@@H](CCC(N)=O)C(=O)N[C@@H](CCCCN)C(=O)N1CCC[C@@H]1C(=O)N1CCC[C@H]1C(=O)N[C@@H](CO)C(=O)N[C@@H](CCCNC(=N)N)C(=O)N[C@@H](CCCNC(N)=O)C(=O)N2` [Ex. 89] (cyclo(SR[Cit]CRG[dP]RR[2Nal]CYQK[dP]P); disulfide 4-11): the Hemolysis at 100 μM in data set [1] is 0%. This molecule yielded a GI50 at 48 h in data set [3] of 50 µM. The IC50 in data set [4] came out at 0.5 nM.
